These results are taken from US4659707A, “Aminoacyl derivatives of 4,9-dihydro-10H-pyrido[3,2-b]thieno[3,2-e][1,4]diazepinone and of 4,9-dihydro-10H-pyrido[3,2-b]thieno[3,4-e][1,4]diazepinone, their preparation and pharmaceutical compositions containing them” (Dompe' Farmaceutici S.p.A., priority 1985, dated 1987).

Each structure is given as a SMILES string.

The term ED50 denotes the midpoint of the dose-response relation. As a reminder, the LD50 is the dose expected to kill half of the subjects tested. Read a high LD50 as a less toxic substance.

One series has as its system Stress ulcer. The experiment in a line: Stress ulcer (restraint+immersion) in the rat. Type of series: in vivo. The settings on record: po, 6 hours immersion at about 20° C., ulcer score 0 to 5, read-out: Antiulcer activity (stress ulcer) ED50 (confidence limits p = 0.95). On the procedure:
2. Stress ulcer (restraint+immersion) in the rat The method described by Takagi, K., Okabes, S., Jap. J. Pharmacol., 18, 9 (1968) has been used. The animals fasted for 48 hours were immobilized in a stress cage (drilled cylindrical tube 14.5×3.5 cm) and immersed in H2 O (at a temperature of about 20° C.) up to the xiphoid process. After 6 hours immersion the animals were sacrificed in excess ether, the stomach was drawn and opened along the great curvature. The ulcers were evaluated according to a score ranging from 0 to 5 assigning: 0.5 for each small ulcera (<3 mm) or in the presence of erosions or haemorrages 1 for each great ulcer (>3 mm). The oral treatment with the reference drug pirenzepine at the doses of 12.5--25--50 mg/kg has been carried out 1 hour before the stress.

A short description of another series: Acute toxicity. The settings on record: mouse, in vivo; Swiss mice, oral, observation 14 days. On the procedure:
The acute toxicity was determined by administering by oral route the substances under exam to Swiss mice; average weight 20±2 g. The observation period was 14 days. 10 Animals were used for each tested dose.

A further series relates to Tremors by oxotremorine. Kind of series: Oxotremorine tremors in the mouse. The settings on record: oral 60 minutes before 2 mg/kg i.p. oxotremorine, read-out: Tremors by oxotremorine ED50 (confidence limits p). The format is in vivo.
In another series the test system is Carbachole salivation. Kind of series: Charbacole salivation in the rat. Type of series: in vivo, male Sprague-Dawley rats. The settings on record: 1 h, oral one hour before 1 mg/kg i.p. charbacole, read-out: Carbachole salivation ED50 (confidence limits p = 0.95). As for the experimental part:
3. Charbacole salivation in the rat The method cited by R. Turner: "Parasympatholytic Agents" in R. Turner "Screening Methods in Pharmacology" pag. 137. Academic Press. New York & London 1965, with slight changes, was used. Male Sprague-Dawley rats, average weight 150±5 g, fasted for 24 hours, were used. The salivation was induced by the intraperitoneal administration of 1 mg/kg of charbacole. The products under exam were administered orally one hour before the chollinergic stimulus.

A further series relates to Gastric acid secretion. The experiment in a line: Gastric acid secretion in the pylorus ligated rat. The format is in vivo, male Sprague-Dawley rats. As to conditions: oral immediately after pylorus ligation, ligation 4 hours, read-out: Antisecretory activity ED50 (confidence limits p = 0.95). On the procedure:
1. Gastric acid secretion in the pylorus ligated rat The method of […]., Gruenstein M., Siplet H., Gastroenterology, 5, 43 (1945) was used, slightly modified according to the following: Male Sprague-Dawley rats weighing 150±5 g fasting since 48 hours were used. Pylorus ligation was performed for 4 hours. The products under exam were administered by the oral route immediately after the ligation.

Take `CN1CCN(CC(=O)N2c3cscc3C(=O)Nc3cccnc32)CC1` [Example 13, 4-[(4-Methylpiperazin-1-yl)acetyl]-4,9-dihydro-10H-pyrido[3,2-b]thieno[3,4-e][1,4]-diazepin-10-one]: the ED50 with Stress ulcer is 28.8 mg/kg; with Tremors by oxotremorine, above 1000 mg/kg; in the series on Carbachole salivation, above 200 mg/kg; with Gastric acid secretion, 12.4 mg/kg. Besides, the LD50 at 336 h in the series “Acute toxicity” is above 1000 mg/kg.

For the compound `Cc1scc2c1N(C(=O)CN1CCN(C)CC1)c1ncccc1NC2=O` [Example 14, 4-[(4-Methylpiperazin-1-yl)acetyl]-3-methyl-4,9-dihydro-10H-pyrido[3,2-b]thieno[3,4-e][1,4]-diazepin-10-one], the ED50 was 4.43 mg/kg in the series with Stress ulcer, above 10000 mg/kg with Tremors by oxotremorine, 3.36 mg/kg in the series with Carbachole salivation and 3.12 mg/kg with Gastric acid secretion. The same compound returned an LD50 at 336 h in “Acute toxicity” above 500 mg/kg.

With `CN1CCN(CC(=O)N2c3ccsc3C(=O)Nc3cccnc32)CC1.Cl` [Example 3, 4-[(4-Methylpiperazin-1-yl)acetyl]-4,9-dihydro-10H-pyrido[3,2-b]thieno[3,2-e][1,4]-diazepin-10-one hydrochloride], the ED50 was 55.9 mg/kg with Stress ulcer, above 1000 mg/kg in the series with Tremors by oxotremorine, above 200 mg/kg in the series with Carbachole salivation and 27.6 mg/kg with Gastric acid secretion. In the series “Acute toxicity”, this compound had an LD50 at 336 h above 2000 mg/kg.
